Values quoted from earlier work as cited in patent US20020048798A1, “Novel antioxidants” (priority 2000, published 2002).

Settings: factor relative to the racemate of α-lipoic acid

In the case of `O=C(O)CCCC[C@@H]1CCSS1` [R-α-lipoic acid], the “anti-inflammatory activity, stronger by a factor than that of the racemate” value is listed as 10.
